The structures appear in SMILES notation.

In one assay the test system is TFEB. The assay is described as follows: TFEB nuclear translocation assay, HeLa wt cells. The assay is classed as cell-based. To be noted: 2 hrs compound treatment, Table 1 does not say HeLa wt or TRPML1 KO. The essentials: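 HeLa wt or TRPML1 KO cells treated 2 hrs with compounds at 37° C, fixed in 4% PFA, immunostained with anti-TFEB plus Alexa 488 secondary and Hoechst. Imaged at ×20, four fields/well; read-out is nuclear/perinuclear-ring TFEB intensity ratio, reported as AC50.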
For orientation: AC50 means the midpoint of the concentration-response curve, whichever way the signal moves. `C[C@@H]1COC[C@@H](C)N1CC1CCN(c2c(F)cccc2NS(=O)(=O)c2ccc(S(=N)(=O)N(C)C)cc2)CC1` (stereo partly drawn) [Compound A-836, N-(2-(4-(((3S,5S)-3,5-dimethylmorpholino)methyl)piperidin-1-yl)-3-fluorophenyl)-4-(N,N-dimethylsulfamidimidoyl)benzenesulfonamide] returned a half-maximal activity concentration (AC50) of 2010 to 8000 nM.

On to `CC(c1cccc(F)c1N1CCC(CN2C3CCC2COC3)CC1)S(=O)(=O)c1ccc(S(=O)(=O)N(C)C)cc1` (stereo not drawn) [Compound A-839, 4-(1-{3-fluoro-2-[4-({3-oxa-8-azabicyclo[3.2.1]octan-8-yl}methyl)piperidin-1-yl]phenyl}ethanesulfonyl)-N,N-dimethylbenzene-1-sulfonamide], for which the half-maximal activity concentration (AC50) was at most 2000 nM. Take `C[C@H]1COC[C@H](C)N1CC1CCN(c2c(F)cccc2NS(=O)(=O)c2ccc(S(=N)(=O)N(C)C)cc2)CC1` (stereo partly drawn) [Compound A-840, N-(2-(4-(((3S,5S)-3,5-dimethylmorpholino)methyl)piperidin-1-yl)-3-fluorophenyl)-4-(N,N-dimethylsulfamidimidoyl)benzenesulfonamide]: the AC50 is at most 2000 nM.

Staying with this assay, now noted: Homo sapiens, HeLa, 2 h, 2 hrs compound treatment, Table 1 does not say HeLa wt or TRPML1 KO.
With `CN(C)S(=O)(=O)c1ccc(S(=O)(=O)Nc2cccc(F)c2N2CCC3(CCN3)CC2)cc1` [Compound A-816, N4-(2-{1,7-diazaspiro[3.5]nonan-7-yl}-3-fluorophenyl)-N1,N1-dimethylbenzene-1,4-disulfonamide], the AC50 is at least 10000 nM. In turn, `C[C@@H]1CC(OC2CCN(c3c(F)cccc3NS(=O)(=O)c3ccc(S(=O)(=O)N(C)C)cc3)CC2)C[C@H](C)O1` (stereo partly drawn) [Compound A-817, N4-[2-(4-{[(2R,6S)-2,6-dimethyloxan-4-yl]oxy}piperidin-1-yl)-3-fluorophenyl]-N1,N1-dimethylbenzene-1,4-disulfonamide] gave an AC50 of at most 2000 nM. The same measure, in the same setting: as for `C[C@@H]1CN(CC2CCN(c3c(F)cccc3NS(=O)(=O)c3ccc(S(=O)(=O)N(C)C)cc3)CC2)C[C@@H](C)O1` [Compound A-818, N4-[2-(4-{[(2R,6R)-2,6-dimethylmorpholin-4-yl]methyl}piperidin-1-yl)-3-fluorophenyl]-N1,N1-dimethylbenzene-1,4-disulfonamide], the figure is at most 2000 nM. Turning to `O=S(=O)(c1ccc2c(c1)CCC2)N1Cc2cccc(N3CCOCC3)c2C1` [Compound A-819, 2-(2,3-dihydro-1H-indene-5-sulfonyl)-4-(morpholin-4-yl)-2,3-dihydro-1H-isoindole], the half-maximal activity concentration (AC50) is at least 10000 nM.

The compound `Cc1ccc(S(=O)(=O)N2Cc3cccc(N4CCOCC4)c3C2)cc1` [Compound A-820, 2-(4-methylbenzenesulfonyl)-4-(morpholin-4-yl)-2,3-dihydro-1H-isoindole] returned an AC50 of at least 10000 nM. `CN(C)S(=O)(=O)c1ccc(S(=O)(=O)Nc2cccc(F)c2N2CCC(N)(C(F)(F)F)CC2)cc1` [Compound A-821, N4-{2-[4-amino-4-(trifluoromethyl)piperidin-1-yl]-3-fluorophenyl}-N1,N1-dimethylbenzene-1,4-disulfonamide] showed a concentration at half-maximal activity (AC50) of at most 2000 nM. Regarding `COCC1(C)CCN(c2c(NS(=O)(=O)c3ccc(S(=O)(=O)N(C)C)cc3)ccc3ccnn23)CC1` [Compound A-822, N4-{7-[4-(methoxymethyl)-4-methylpiperidin-1-yl]pyrazolo[1,5-a]pyridin-6-yl}-N1,N1-dimethylbenzene-1,4-disulfonamide], the half-maximal activity concentration (AC50) lay in the range of 2010 to 8000 nM. The compound `Cc1cc(NS(=O)(=O)c2ccc3c(c2)CCC3)c(Cl)c(N2CCOCC2)c1` [Compound A-823, N-[2-chloro-5-methyl-3-(morpholin-4-yl)phenyl]-2,3-dihydro-1H-indene-5-sulfonamide] gave an AC50 of at least 10000 nM. On the same count and under the same terms, for `C[C@@H]1COC[C@H](C)N1CC1CCN(c2c(F)cccc2NS(=O)(=O)c2ccc(S(=O)(=O)N(C)C)cc2)CC1` [Compound A-824, N4-[2-(4-{[(3R,5S)-3,5-dimethylmorpholin-4-yl]methyl}piperidin-1-yl)-3-fluorophenyl]-N1,N1-dimethylbenzene-1,4-disulfonamide] the value was at most 2000 nM. Compound `COC(=O)NC1(C)CCN(c2c(F)cccc2NS(=O)(=O)c2ccc(S(=O)(=O)N(C)C)cc2)CC1` [Compound A-825, methyl N-(1-{2-[4-(dimethylsulfamoyl)benzenesulfonamido]-6-fluorophenyl}-4-methylpiperidin-4-yl)carbamate] registered an AC50 of at most 2000 nM. The compound `C[C@H]1CN(CC2CCN(c3c(F)cccc3NS(=O)(=O)c3ccc(S(=O)(=O)N(C)C)cc3)CC2)C[C@H](C)O1` [Compound A-826, N4-[2-(4-{[(2S,6S)-2,6-dimethylmorpholin-4-yl]methyl}piperidin-1-yl)-3-fluorophenyl]-N1,N1-dimethylbenzene-1,4-disulfonamide] showed an AC50 of at most 2000 nM. For the compound `CC(=O)Nc1cccc(NS(=O)(=O)c2ccc(S(=O)(=O)N(C)C)cc2)c1N1CCCCC1` [Compound A-827, N-{3-[4-(dimethylsulfamoyl)benzenesulfonamido]-2-(piperidin-1-yl)phenyl}acetamide], the AC50 is at least 10000 nM. In turn, `COCC1(C)C2CCC1CN(c1ccccc1NS(=O)(=O)c1ccc(S(=O)(=O)N(C)C)cc1)C2` (stereo not drawn) [Compound A-829, N4-{2-[8-(methoxymethyl)-8-methyl-3-azabicyclo[3.2.1]octan-3-yl]phenyl}-N1,N1-dimethylbenzene-1,4-disulfonamide] returned an AC50 of at most 2000 nM. Turning to `CN(C)S(=O)(=O)c1ccc(S(=O)(=O)Nc2cccc(F)c2N2CCC(C)(C(F)F)CC2)cc1` [Compound A-830, N4-{2-[4-(difluoromethyl)-4-methylpiperidin-1-yl]-3-fluorophenyl}-N1,N1-dimethylbenzene-1,4-disulfonamide], the AC50 is at most 2000 nM. Compound `C[C@@H]1CN(CC2CCN(c3c(NS(=O)(=O)c4ccc(S(=O)(=O)N(C)C)cc4)cccc3C(F)F)CC2)C[C@H](C)O1` [Compound A-831, N4-[3-(difluoromethyl)-2-(4-{[(2R,6S)-2,6-dimethylmorpholin-4-yl]methyl}piperidin-1-yl)phenyl]-N1,N1-dimethylbenzene-1,4-disulfonamide] registered a half-maximal activity concentration (AC50) of at most 2000 nM. Compound `CC(c1cccc(F)c1N1CCC(CN2C3CCC2COC3)CC1)S(=O)(=O)c1ccc(S(=O)(=O)N(C)C)cc1` (stereo not drawn) [Compound A-832, 4-((1-(2-(4-((3-oxa-8-azabicyclo[3.2.1]octan-8-yl)methyl)piperidin-1-yl)-3-fluorophenyl)ethyl)sulfonyl)-N,N-dimethylbenzenesulfonamide] registered a concentration at half-maximal activity (AC50) of at most 2000 nM. For the compound `C[C@@H]1COC[C@@H](C)N1CC1CCN(c2c(F)cccc2NS(=O)(=O)c2ccc(S(=N)(=O)N(C)C)cc2)CC1` (stereo partly drawn) [Compound A-835, N-(2-(4-(((3S,5S)-3,5-dimethylmorpholino)methyl)piperidin-1-yl)-3-fluorophenyl)-4-(N,N-dimethylsulfamidimidoyl)benzenesulfonamide], the AC50 was at most 2000 nM. Take `CC(c1cccc(F)c1N1CCC(CN2C[C@H]3C[C@@H](C2)O3)CC1)S(=O)(=O)c1ccc(S(=O)(=O)N(C)C)cc1` (stereo partly drawn) [Compound A-837, 4-{1-[3-fluoro-2-(4-{[(1R,5S)-6-oxa-3-azabicyclo[3.1.1]heptan-3-yl]methyl}piperidin-1-yl)phenyl]ethanesulfonyl}-N,N-dimethylbenzene-1-sulfonamide]: the AC50 is at most 2000 nM.

The values above are taken from patent US20230104936A1, “TRPML MODULATORS” (Casma Therapeutics, Inc., priority 2019, published 2023).
